Earlier results, collected in patent US11208393B2, “Methods for extraction, processing, and purification of a selected family of target compounds from cannabis” (Nectar Health Sciences Inc., priority 2019, dated 2021).

Conditions: of the protonated amine (ammonium ion)

CN(C)CCN(C)C [TMEDA, tetramethylethylenediamine]
pKa: 9.0

CN(C)CCO [(CH3)2NHCH2OH^+, dimethylethanolamine]
pKa: 9.3

C1CN2CCN1CC2 [DABCO, 1,4-diazabicyclo[2.2.2]octane]
pKa: 8.9
